For orientation: IC50 means the concentration that inhibits the measured activity by half.

Where two headings read alike, the source gives them in different places.

The target of data set [1] is T1, prolyl endopeptidase from canine brain (Canis lupus familiaris, UniProt A0A8I3N6C8).
T1 construct: A prolyl endopeptidase was prepared from canine brains; from tissue; host or cells: canine brain
As to the kind of experiment: Inhibitory activity against prolyl endopeptidase from brain (Test Example 1). It is filed as biochemical. As for the experimental part: Following buffer solutions A and B were used for the measurement.
Buffer A: 20 mM Tris-HCl buffer (pH 7.0)
Buffer B: Buffer A containing 0.1% gelatin, 1 mM EDTA, 1 mM 2-mercaptoethanol.
Dilution of the prolyl endopeptidase preparation with Buffer B to a concentration of 0.4 units/ml was done, and the resulting solution was defined as enzyme solution. To 940 μl of Buffer A was added 50 μl of the enzyme solution, followed by incubating at 37° C. for 10 minutes, to which was added 10 μl of a solution of a sample compound dissolved in dimethyl sulfoxide, and stirred and mixed together, followed by staying at 37° C. for ten minutes. To the mixture was added 100 μl of carbobenzoxyglycylprolyl p-nitroanilide dissolved in 40% dioxane to a final concentration of 2.5 mM, for reaction at 37° C. for 10 minutes, to which was added 100 μl of 50% acetic acid containing 10% Triton X-100, thereby terminating the reaction.
For controls, dimethyl sulfoxide was added at the same amount (10 μl) instead of the solution of the sample compound; for blind tests, dimethyl sulfoxide and Buffer B were added instead of a sample compound and the enzyme solution, respectively, at the same amounts for effecting the same procedure.

Another data set deals with ICR male mice. As to the kind of experiment: Anti-hypoxic activity (Test Example 2), survival time under 4% O2 / 96% N2. It counts as in vivo. As to conditions: 100 mg/kg, intraperitoneal, 30 min before gas; control = 100. Here is the method:
Groups of ICR male mice (Charles River Co.), age 4 to 5 weeks, each group consisting of 10 mice and each mouse having been fasted for 24 hours, were used for the test. Mice were placed in a transparent desiccator (diameter: 19 cm, height: 30 cm) made of synthetic resin and having 2 valves, one at the upper portion and the other at the lower portion, for replacing the gas therein. […] The time measured was taken as the survival time.
Each tested compound suspended in an solvent was intraperitoneally administered 30 minutes before the start of the mixed gas feeding. A group of mice to which only the solvent was intraperitoneally administered was used as a control.
The anti-hypoxic activity was determined according to the following equation: [formula]

The subject of a further data set is ICR mice. As to the kind of experiment: Toxicity test; Parenteral administration (Test Example 4). It is filed as in vivo. As to conditions: 300 mg/kg parenteral, 7 days observation. Here is the method:
Test Example 4 (Toxicity test; Parenteral administration)
Ten ICR mice (Charles River, Co.), male, aged 4 to 5 weeks, were employed per group. The compounds of Examples 1, 5, 8 and 12 were separately suspended in 10% gum arabic, and then, they were individually administered parenterally at a dose of 300 mg/kg for subsequent observation for 7 days. As a result, no death was counted under the above conditions.

The next data set has as its system Male ICR mice. As to the kind of experiment: Toxicity test; Oral administration (Test Example 5). As to conditions: 1,000 mg/kg oral, 7 days observation. It counts as in vivo. Here is the method: Test Example 5 (Toxicity test; Oral administration)
Five male ICR mice (Charles River, Co.) of age 5 weeks, were employed per group. The compound of Example 22 was suspended in a solvent, which was then administered orally at a dose of 1,000 mg/kg for subsequent observation for 7 days. As a result, no death was counted under the above conditions.

The mark [2] stands for this setting: canine brain enzyme, carbobenzoxyglycylprolyl p-nitroanilide substrate, 37° C., pH 7.0, read-out: Inhibition Potency IC50.

T1 sequence (A0A8I3N6C8 1-710): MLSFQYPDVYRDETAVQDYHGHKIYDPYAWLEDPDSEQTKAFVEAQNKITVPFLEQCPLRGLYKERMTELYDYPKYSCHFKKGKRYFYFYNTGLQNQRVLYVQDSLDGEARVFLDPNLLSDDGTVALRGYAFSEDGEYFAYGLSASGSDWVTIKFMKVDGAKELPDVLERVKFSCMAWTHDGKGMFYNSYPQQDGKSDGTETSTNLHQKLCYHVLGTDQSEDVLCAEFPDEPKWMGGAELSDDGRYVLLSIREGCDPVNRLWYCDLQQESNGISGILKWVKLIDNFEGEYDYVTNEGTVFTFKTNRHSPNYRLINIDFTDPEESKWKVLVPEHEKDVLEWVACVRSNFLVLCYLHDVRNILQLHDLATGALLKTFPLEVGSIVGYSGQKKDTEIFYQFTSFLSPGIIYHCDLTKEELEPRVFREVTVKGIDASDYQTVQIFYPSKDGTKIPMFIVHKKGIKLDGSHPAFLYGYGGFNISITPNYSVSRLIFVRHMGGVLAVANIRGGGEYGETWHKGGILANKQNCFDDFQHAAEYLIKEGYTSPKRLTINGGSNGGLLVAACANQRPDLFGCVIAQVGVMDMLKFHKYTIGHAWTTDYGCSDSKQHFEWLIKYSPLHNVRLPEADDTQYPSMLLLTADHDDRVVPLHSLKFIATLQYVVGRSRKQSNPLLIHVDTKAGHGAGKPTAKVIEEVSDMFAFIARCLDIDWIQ

In the case of `COc1ccc(C(=O)N2CCCC2=O)cc1` [Aniracetam, reference compound], the IC50 in data set [1] is > 1000 µM. Also, the “Anti-hypoxic Activity” value in the data set with ICR male mice was found to be 115%.

Turning to `O=C([C@@H]1CSCN1C(=O)CC1Cc2ccccc2C1)N1CCC[C@H]1CO` [Example 1, 1-[3-(Indan-2-ylacetyl)-L-thioprolyl]-L-prolinol], the “death within 7 days (parenteral)” value in the data set with ICR mice is given as “no death”. Take `O=C[C@@H]1CCCN1C(=O)[C@@H]1CSCN1C(=O)CC1Cc2ccccc2C1` [Example 2, 1-[3-(Indan-2-ylacetyl)-L-thioprolyl]-L-prolinal]: the “Anti-hypoxic Activity” value with ICR male mice was found to be 120%. As for `O=C([C@@H]1CSCN1C(=O)C[C@H]1CCc2ccccc2C1)N1CSC[C@H]1CO` [Example 5, 3-[3-((S)-1,2,3,4-tetrahydronaphthalen 2-ylacetyl)-L-thioprolyl]-L-thioprolinol], the “death within 7 days (parenteral)” value with ICR mice was “no death”. Moreover, the “Anti-hypoxic Activity” value in the data set on ICR male mice came to 115%.

With `O=C([C@@H]1CCCN1C(=O)c1cc2ccccc2o1)N1CCC[C@H]1CO` [Example 6, 1-[1-(benzofuran-2-ylcarbonyl)-L-prolyl]-L-prolinol], in the data set on ICR male mice, the “Anti-hypoxic Activity” value was determined as 128%. `O=C[C@@H]1CSCN1C(=O)[C@@H]1CCCN1C(=O)CC1Cc2ccccc2C1` [Example 8, 3-[1-(indan-2-ylacetyl)-L-prolyl]-L-thioprolinal]: the “death within 7 days (parenteral)” value in the data set on ICR mice is recorded as “no death”. Also, the half-maximal inhibitory concentration (IC50) in data set [1] (setting [2]) turned out to be 0.0012 µM. The “Anti-hypoxic Activity” value in the data set with ICR male mice is 120%.

`O=C[C@@H]1CCCN1C(=O)[C@@H]1CSCN1C(=O)C[C@H]1CCc2ccccc2C1` [Example 9, 1-[3-((S)-1,2,3,4-tetrahydronaphthalen-2-ylacetyl)-L-thioprolyl]-L-prolinal]: the “death within 7 days (oral)” value in the data set with Male ICR mice is “no death”. Further, the “Anti-hypoxic Activity” value with ICR male mice is reported as 123%. As for `O=C[C@@H]1CSCN1C(=O)[C@@H]1CSCN1C(=O)C[C@H]1CCc2ccccc2C1` [Example 10, 3-[3-((S)-1,2,3,4-tetrahydronaphthalen-2-ylacetyl)-L-thioprolyl]-L-thioprolinal], the IC50 in data set [1] (setting [2]) stood at 0.0014 µM. Besides, in the data set with ICR male mice, the “Anti-hypoxic Activity” value came to 129%. On to `O=C[C@@H]1CCCN1C(=O)[C@@H]1CCCN1C(=O)c1cc2ccccc2o1` [Example 11, 1-[1-(benzofuran-2-ylcarbonyl)-L-prolyl]-L-prolinal], for which the IC50 in data set [1] (setting [2]) was found to be 0.069 µM. Turning to `O=C[C@@H]1CSCN1C(=O)[C@@H]1CCCN1C(=O)c1cc2ccccc2o1` [Example 12, 3-[1-(benzofuran-2-ylcarbonyl)-L-prolyl]-L-thioprolinal], in the data set with ICR mice, the “death within 7 days (parenteral)” value is “no death”. For the compound `O=C([C@@H]1CSCN1C(=O)C[C@H]1CCc2ccccc2C1)N1CCC[C@H]1C=NO` [Example 25, (2S)-1-[3-((S)-1,2,3,4-Tetrahydronaphthalen-2-ylacetyl)-L-thioprolyl]-2-pyrrolidine aldoxime], the IC50 in data set [1] (setting [2]) was found to be 0.016 µM.

The values above are taken from patent US5407950A, “Arylalkanoylamine derivative and drug containing the same” (priority 1990, dated 1995).
